Read-outs that look alike come from different tables or passages of the source.
What was measured:
MAP4K5 = MAP4K5 (Homo sapiens, UniProt Q9Y4K4); assay: Kinome profiling MAP4K5; assay type: biochemical; details: Table 4, read-out: Inhibitory Activity MAP4K5
Description: (§1) . The kinome-wide selectivity was determined following the methods previously reported by Mohedas et al., ACS Chem Biol 2013, 8, 1291-1302 and Sanvitale et al., PLoS One 2013, 8, e62721.

BMP6 = assay: Ligand induced transcriptional activity assay BMP6 (BRE-Luc); assay type: cell-based
ALK2 = ALK2 (Homo sapiens, UniProt Q04771); assay: Kinome profiling ALK2; assay type: biochemical; details: Table 4, read-out: Inhibitory Activity ALK2
Description: as §1

ALK6 = ALK6 (Homo sapiens, UniProt O00238); assay: Kinome profiling ALK6; assay type: biochemical; details: Table 4, read-out: Inhibitory Activity ALK6
Description: as §1

TNIK = TNIK (Homo sapiens, UniProt Q9UKE5); assay: Kinome profiling TNIK; assay type: biochemical; details: Table 4, read-out: Inhibitory Activity TNIK
Description: as §1

RIPK2 = RIPK2 (Homo sapiens, UniProt O43353); assay: Kinome profiling RIPK2; assay type: biochemical; details: Table 4, read-out: Inhibitory Activity RIPK2
Description: as §1

FGR = FGR (Homo sapiens, UniProt P09769); assay: Kinome profiling FGR; assay type: biochemical; details: read-out: Inhibitory activity FGR; for inhibition at 0.1 µM: 100 nM
Description: as §1

PRKD1 = target: T1, PRKD1 (Homo sapiens, UniProt Q15139); assay: Kinome profiling PRKD1; assay type: biochemical; details: read-out: Inhibitory activity PRKD1; for inhibition at 0.1 µM: 100 nM
T1 sequence (Q15139 1-912): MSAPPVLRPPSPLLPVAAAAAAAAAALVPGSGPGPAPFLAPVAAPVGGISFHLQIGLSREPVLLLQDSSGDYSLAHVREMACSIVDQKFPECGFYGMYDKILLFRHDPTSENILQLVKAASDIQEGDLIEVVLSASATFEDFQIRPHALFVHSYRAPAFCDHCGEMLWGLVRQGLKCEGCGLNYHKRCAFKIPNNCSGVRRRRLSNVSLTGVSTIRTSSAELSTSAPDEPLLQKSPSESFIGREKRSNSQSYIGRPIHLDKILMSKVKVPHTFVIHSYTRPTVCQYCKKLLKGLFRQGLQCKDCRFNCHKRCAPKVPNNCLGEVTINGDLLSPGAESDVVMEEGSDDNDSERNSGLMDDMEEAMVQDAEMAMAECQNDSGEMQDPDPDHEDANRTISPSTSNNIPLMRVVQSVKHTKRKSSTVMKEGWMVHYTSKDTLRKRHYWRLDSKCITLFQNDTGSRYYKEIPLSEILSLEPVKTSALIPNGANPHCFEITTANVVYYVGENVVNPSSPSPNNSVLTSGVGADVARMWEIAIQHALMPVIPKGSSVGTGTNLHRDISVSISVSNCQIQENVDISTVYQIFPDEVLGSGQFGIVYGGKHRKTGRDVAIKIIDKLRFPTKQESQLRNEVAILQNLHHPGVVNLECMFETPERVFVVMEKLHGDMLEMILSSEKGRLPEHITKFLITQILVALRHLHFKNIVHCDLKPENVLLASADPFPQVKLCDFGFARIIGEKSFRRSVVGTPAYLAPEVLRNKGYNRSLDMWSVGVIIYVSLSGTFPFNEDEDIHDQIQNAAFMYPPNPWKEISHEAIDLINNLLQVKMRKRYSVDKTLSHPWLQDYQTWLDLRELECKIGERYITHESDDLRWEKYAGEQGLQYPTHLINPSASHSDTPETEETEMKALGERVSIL
Description: as §1

TRKB = TRKB (Homo sapiens, UniProt Q16620); assay: Kinome profiling TRKB; assay type: biochemical; details: read-out: Inhibitory activity TRKB; for inhibition at 0.1 µM: 100 nM
Description: as §1

PHKγ1 = PHKγ1 (Homo sapiens, UniProt Q16816); assay: Kinome profiling PHKγ1; assay type: biochemical; details: read-out: Inhibitory activity PHKγ1; for inhibition at 0.1 µM: 100 nM
Description: as §1

caALK1 = target: T2, caALK1 (Homo sapiens, UniProt P37023, Q201D); assay: Luciferase reporter assay constitutively active ALK1; details: read-out: Cell Based Assay caALK1 IC50
T2 construct: expressed in transfected cells; host or cells: C2C12 BRE-Luc cells infected with adenovirus (MOI 100)
Description: The cells were incubated for 1 h (37° C. and 10% CO2) and allowed to settle and attach. Compounds of interest or DMSO were diluted in DMEM and added at final compound concentrations of 1 nM to 10 μM. Cells were then incubated for 30 min. Adenovirus expressing constitutively active BMP and TGF-β type I receptors (Ad.caALK1-5), generously provided by Dr. Akiko Hata (University of to California at San Francisco), were added to achieve a multiplicity of infection (MOI) of 100. Plates were incubated overnight at 37° C. Cell viability was assayed with an MIT (3-(4,5-dimethylthiazol-2-yl)-2,5-diphenyl tetrazolium bromide) colorimetric assay (Promega) per the manufacturer's instructions. Media was discarded, and firefly luciferase activity was measured (Promega) according to manufacturer's protocol. Light output was measured using a Spectramax L luminometer (Molecular Devices) with an integration time of one second per well. Data was normalized to 100% of incremental BRE-Luc activity due to adenoviruses specifying caALK1, 2, or 3, or the incremental CAGA-Luc activity due to adenoviruses specifying caALK4 or 5.

Sequence of PHKγ1 (Q16816 whole entry): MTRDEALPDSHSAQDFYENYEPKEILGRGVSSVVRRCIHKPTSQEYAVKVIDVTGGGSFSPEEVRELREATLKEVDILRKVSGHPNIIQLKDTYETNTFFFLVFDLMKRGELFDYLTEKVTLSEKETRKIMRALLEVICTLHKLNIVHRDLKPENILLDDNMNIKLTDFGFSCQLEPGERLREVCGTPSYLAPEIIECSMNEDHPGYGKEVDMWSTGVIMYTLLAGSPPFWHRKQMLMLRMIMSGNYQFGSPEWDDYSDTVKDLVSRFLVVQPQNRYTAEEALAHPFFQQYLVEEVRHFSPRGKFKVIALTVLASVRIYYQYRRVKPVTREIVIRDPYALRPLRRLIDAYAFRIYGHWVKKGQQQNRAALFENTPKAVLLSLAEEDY
Sequence of TRKB (Q16620 32-822): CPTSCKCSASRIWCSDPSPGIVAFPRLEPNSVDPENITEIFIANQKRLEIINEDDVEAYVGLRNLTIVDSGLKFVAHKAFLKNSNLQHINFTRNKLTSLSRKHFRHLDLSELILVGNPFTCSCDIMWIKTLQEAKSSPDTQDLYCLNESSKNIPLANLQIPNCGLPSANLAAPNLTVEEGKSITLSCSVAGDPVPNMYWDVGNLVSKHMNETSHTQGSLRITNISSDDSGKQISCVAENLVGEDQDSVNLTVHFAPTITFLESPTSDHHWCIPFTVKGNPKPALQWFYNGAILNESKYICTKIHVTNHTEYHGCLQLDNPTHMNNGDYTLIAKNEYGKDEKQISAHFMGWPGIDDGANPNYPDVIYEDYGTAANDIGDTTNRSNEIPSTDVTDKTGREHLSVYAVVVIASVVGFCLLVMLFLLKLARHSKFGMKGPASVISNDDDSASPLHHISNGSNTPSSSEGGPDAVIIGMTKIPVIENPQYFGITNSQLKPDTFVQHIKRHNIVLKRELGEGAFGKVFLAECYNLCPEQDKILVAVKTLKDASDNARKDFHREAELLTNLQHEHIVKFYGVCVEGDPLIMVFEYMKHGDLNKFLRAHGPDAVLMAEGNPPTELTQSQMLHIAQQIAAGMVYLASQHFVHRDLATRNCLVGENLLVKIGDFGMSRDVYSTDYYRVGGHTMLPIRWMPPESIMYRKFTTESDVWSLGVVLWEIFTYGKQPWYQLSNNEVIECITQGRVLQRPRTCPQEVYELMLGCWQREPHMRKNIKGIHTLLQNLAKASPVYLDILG
Sequence of FGR (P09769 whole entry): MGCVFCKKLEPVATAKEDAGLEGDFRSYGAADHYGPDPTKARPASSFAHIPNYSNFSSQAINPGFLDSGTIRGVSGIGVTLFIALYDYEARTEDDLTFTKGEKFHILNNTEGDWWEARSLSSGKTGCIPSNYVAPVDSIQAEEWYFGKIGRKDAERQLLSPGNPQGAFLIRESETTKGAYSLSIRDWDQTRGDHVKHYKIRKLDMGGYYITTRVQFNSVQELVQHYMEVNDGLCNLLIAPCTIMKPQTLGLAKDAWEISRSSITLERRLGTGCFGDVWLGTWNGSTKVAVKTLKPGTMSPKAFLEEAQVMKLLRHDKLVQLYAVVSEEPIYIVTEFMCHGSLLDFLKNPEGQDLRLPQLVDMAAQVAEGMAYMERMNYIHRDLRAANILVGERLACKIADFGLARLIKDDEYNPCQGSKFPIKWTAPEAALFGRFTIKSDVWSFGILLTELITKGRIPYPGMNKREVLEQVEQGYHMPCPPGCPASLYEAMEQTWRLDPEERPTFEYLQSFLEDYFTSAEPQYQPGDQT
Sequence of TNIK (Q9UKE5 whole entry): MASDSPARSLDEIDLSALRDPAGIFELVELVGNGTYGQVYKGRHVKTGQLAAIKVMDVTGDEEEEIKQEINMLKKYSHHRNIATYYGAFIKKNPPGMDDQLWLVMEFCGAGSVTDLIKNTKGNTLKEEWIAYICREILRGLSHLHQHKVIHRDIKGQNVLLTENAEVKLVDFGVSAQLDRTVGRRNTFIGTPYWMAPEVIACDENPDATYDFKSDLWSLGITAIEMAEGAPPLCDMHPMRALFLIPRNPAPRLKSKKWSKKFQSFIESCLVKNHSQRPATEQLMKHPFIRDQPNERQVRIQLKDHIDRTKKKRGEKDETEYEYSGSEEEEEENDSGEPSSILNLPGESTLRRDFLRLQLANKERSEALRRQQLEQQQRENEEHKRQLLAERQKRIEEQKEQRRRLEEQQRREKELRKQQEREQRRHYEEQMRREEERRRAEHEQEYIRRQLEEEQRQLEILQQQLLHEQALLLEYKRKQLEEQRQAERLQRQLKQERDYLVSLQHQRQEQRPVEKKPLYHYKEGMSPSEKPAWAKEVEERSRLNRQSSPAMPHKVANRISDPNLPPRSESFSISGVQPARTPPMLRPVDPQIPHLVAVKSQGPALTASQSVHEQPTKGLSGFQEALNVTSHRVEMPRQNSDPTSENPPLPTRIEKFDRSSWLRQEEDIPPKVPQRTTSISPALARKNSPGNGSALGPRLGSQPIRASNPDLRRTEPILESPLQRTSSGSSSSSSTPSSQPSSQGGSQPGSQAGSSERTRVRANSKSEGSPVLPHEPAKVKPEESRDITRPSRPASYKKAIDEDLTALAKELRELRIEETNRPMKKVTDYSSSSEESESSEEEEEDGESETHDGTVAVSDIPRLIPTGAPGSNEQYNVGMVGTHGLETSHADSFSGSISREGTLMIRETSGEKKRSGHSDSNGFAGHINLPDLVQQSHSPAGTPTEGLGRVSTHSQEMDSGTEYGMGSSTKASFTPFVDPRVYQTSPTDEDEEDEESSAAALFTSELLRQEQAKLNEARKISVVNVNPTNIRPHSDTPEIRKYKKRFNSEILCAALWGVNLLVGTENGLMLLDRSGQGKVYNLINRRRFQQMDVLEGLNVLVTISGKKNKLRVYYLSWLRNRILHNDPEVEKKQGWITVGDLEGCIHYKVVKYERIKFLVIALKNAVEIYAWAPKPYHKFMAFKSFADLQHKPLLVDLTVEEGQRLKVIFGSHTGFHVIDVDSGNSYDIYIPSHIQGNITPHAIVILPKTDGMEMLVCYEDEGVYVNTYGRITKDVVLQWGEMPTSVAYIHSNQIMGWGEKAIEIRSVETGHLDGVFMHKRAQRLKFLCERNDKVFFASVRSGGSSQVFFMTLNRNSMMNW
Sequence of ALK2 (Q04771 21-509): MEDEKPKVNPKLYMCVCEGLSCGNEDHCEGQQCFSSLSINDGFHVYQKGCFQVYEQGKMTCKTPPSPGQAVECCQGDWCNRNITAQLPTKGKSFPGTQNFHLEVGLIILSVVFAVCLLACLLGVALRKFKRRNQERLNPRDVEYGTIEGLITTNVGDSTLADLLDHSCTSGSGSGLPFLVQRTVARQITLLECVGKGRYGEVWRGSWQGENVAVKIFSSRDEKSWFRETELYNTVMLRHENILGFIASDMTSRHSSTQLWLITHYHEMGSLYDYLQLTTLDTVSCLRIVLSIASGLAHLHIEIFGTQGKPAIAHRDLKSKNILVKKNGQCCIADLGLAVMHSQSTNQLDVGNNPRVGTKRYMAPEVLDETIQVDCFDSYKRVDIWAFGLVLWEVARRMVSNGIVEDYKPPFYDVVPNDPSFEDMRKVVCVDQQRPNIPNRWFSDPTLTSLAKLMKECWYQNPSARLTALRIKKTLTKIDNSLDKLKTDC
Sequence of ALK6 (O00238 14-502): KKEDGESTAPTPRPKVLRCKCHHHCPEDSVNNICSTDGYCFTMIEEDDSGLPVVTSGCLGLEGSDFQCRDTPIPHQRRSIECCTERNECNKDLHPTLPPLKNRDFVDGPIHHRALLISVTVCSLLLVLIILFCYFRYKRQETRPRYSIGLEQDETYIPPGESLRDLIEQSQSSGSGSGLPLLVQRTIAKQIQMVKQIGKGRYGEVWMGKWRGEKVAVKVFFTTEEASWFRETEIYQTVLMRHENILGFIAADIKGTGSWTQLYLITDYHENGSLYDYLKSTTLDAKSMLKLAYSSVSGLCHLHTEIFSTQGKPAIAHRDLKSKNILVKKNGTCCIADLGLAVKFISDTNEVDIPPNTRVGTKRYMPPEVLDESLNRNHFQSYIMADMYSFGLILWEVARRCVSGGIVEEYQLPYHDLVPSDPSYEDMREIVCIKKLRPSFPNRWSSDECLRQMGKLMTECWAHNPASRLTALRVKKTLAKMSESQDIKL
Sequence of MAP4K5 (Q9Y4K4 whole entry): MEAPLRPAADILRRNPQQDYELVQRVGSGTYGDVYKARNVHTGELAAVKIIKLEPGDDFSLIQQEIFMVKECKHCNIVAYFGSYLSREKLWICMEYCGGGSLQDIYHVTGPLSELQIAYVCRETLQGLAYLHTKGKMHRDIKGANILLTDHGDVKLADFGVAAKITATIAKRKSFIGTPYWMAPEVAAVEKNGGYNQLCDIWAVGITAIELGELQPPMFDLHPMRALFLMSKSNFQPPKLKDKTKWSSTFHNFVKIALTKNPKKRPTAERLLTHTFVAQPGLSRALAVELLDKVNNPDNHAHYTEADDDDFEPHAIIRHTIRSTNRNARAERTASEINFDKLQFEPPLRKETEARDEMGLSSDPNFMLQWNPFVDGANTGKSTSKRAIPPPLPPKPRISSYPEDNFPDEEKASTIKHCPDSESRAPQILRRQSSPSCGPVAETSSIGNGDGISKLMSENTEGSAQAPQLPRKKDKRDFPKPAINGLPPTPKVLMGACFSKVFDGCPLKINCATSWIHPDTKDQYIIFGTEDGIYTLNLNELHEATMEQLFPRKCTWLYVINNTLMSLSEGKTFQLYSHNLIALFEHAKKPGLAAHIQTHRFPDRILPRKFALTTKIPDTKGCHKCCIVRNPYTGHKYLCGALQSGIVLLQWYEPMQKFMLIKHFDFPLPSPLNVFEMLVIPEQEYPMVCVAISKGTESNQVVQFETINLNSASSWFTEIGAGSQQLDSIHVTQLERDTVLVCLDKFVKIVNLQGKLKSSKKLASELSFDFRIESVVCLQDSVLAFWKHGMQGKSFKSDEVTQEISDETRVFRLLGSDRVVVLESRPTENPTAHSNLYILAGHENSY

Compound | inhibition at 0.1 µM (FGR) | inhibition at 1 µM (FGR) | inhibition at 0.1 µM (PRKD1) | inhibition at 1 µM (PRKD1) | inhibition at 0.1 µM (TRKB) | inhibition at 1 µM (TRKB) | inhibition at 0.1 µM (PHKγ1) | inhibition at 1 µM (PHKγ1) | other results
COc1cc(-c2cc(-c3ccc(N4CCNCC4)cc3)cnc2C)cc(OC)c1OC [Compound 10, 1-(4-(6-methyl-5-(3,4,5-trimethoxyphenyl)pyridin-3-yl)phenyl)piperazine] | 9% | 36% | 4% | 23% | 3% | 3% | 3% | 3% | inhibition at 0.1 µM (MAP4K5; 100 nM): 43%; inhibition at 1 µM (MAP4K5; 1 μM): 86%; IC50 (BMP6; Table 7, read-out: Ligand Induced BMP6 IC50): 67 nM; IC50 (BMP6; cell-based signaling inhibition, read-out: BMP6 IC50): 100 ± 1 nM; inhibition at 0.1 µM (ALK2; 100 nM): 67%; inhibition at 1 µM (ALK2; 1 μM): 99%; inhibition at 0.1 µM (ALK6; 100 nM): 11%; inhibition at 1 µM (ALK6; 1 μM): 60%; inhibition at 0.1 µM (TNIK; 100 nM): 71%; inhibition at 1 µM (TNIK; 1 μM): 98%; inhibition at 0.1 µM (RIPK2; 100 nM): 71%; inhibition at 1 µM (RIPK2; 1 μM): 97%
COc1cc(-c2cc(-c3ccc(N4CCNCC4)cc3)cnc2N)cc(OC)c1OC [Compound 15, 5-(4-(piperazin-1-yl)phenyl)-3-(3,4,5-trimethoxyphenyl)pyridin-2-amine] | 36% | 76% | 11% | 50% | 2% | 3% | 3% | 4% | IC50 (caALK1): 24 nM

Reference: US20170190705A1, “Compositions and Methods for Inhibiting BMP” (THE BRIGHAM AND WOMAN'S HOSPITAL, INC., priority 2014, published 2017)
